Results from the NIST ThermoML archive (doi:10.1016/j.jct.2011.06.020).
Numbers after ± are expanded uncertainties.

Experiment: refractive index (Na D-line) (dimensionless); xn = mol fraction of the nth substance listed
Conditions: 101 kPa, Liquid, Standard Abbe refractometry

Compound CN1CCNCC1 [N-methylpiperazine] + O has a refractive index (293.15 K, x1 = 0.0521) of 1.374 ± 0.001, a refractive index (293.15 K, x1 = 0.0725) of 1.389 ± 0.001 and a refractive index (293.15 K, x1 = 0.1039) of 1.406 ± 0.001. The refractive index (293.15 K, x1 = 0.2091) was 1.44 ± 0.001, the refractive index (293.15 K, x1 = 0.3101) was 1.453 ± 0.001 and the refractive index (293.15 K, x1 = 0.4096) was 1.459 ± 0.001. The refractive index (293.15 K, x1 = 0.5109) was 1.462 ± 0.001, the refractive index (293.15 K, x1 = 0.608) was 1.464 ± 0.001 and the refractive index (293.15 K, x1 = 0.7065) was 1.465 ± 0.001. The refractive index (293.15 K, x1 = 0.8069) was 1.466 ± 0.001, the refractive index (293.15 K, x1 = 0.8819) was 1.466 ± 0.001 and the refractive index (293.15 K, x1 = 1) was 1.466 ± 0.001. For the same compound, the refractive index (298.15 K, x1 = 0.0521) was 1.373 ± 0.001, the refractive index (298.15 K, x1 = 0.0725) was 1.388 ± 0.001 and the refractive index (298.15 K, x1 = 0.1039) was 1.405 ± 0.001. It also gave a refractive index (298.15 K, x1 = 0.2091) of 1.438 ± 0.001, a refractive index (298.15 K, x1 = 0.3101) of 1.451 ± 0.001 and a refractive index (298.15 K, x1 = 0.4096) of 1.457 ± 0.001. For the same compound, the refractive index (298.15 K, x1 = 0.5109) was 1.46 ± 0.001, the refractive index (298.15 K, x1 = 0.608) was 1.462 ± 0.001 and the refractive index (298.15 K, x1 = 0.7065) was 1.463 ± 0.001. It also gave a refractive index (298.15 K, x1 = 0.8069) of 1.463 ± 0.001, a refractive index (298.15 K, x1 = 0.8819) of 1.464 ± 0.001 and a refractive index (298.15 K, x1 = 1) of 1.464 ± 0.001. It also gave a refractive index (303.15 K, x1 = 0.0521) of 1.373 ± 0.001, a refractive index (303.15 K, x1 = 0.0725) of 1.387 ± 0.001 and a refractive index (303.15 K, x1 = 0.1039) of 1.403 ± 0.001. It also gave a refractive index (303.15 K, x1 = 0.2091) of 1.436 ± 0.001, a refractive index (303.15 K, x1 = 0.3101) of 1.449 ± 0.001 and a refractive index (303.15 K, x1 = 0.4096) of 1.455 ± 0.001. It also gave a refractive index (303.15 K, x1 = 0.5109) of 1.458 ± 0.001, a refractive index (303.15 K, x1 = 0.608) of 1.46 ± 0.001 and a refractive index (303.15 K, x1 = 0.7065) of 1.461 ± 0.001. It also gave a refractive index (303.15 K, x1 = 0.8069) of 1.461 ± 0.001, a refractive index (303.15 K, x1 = 0.8819) of 1.461 ± 0.001 and a refractive index (303.15 K, x1 = 1) of 1.461 ± 0.001. The refractive index (308.15 K, x1 = 0.0521) was 1.372 ± 0.001, the refractive index (308.15 K, x1 = 0.0725) was 1.386 ± 0.001 and the refractive index (308.15 K, x1 = 0.1039) was 1.402 ± 0.001. It also gave a refractive index (308.15 K, x1 = 0.2091) of 1.434 ± 0.001, a refractive index (308.15 K, x1 = 0.3101) of 1.447 ± 0.001 and a refractive index (308.15 K, x1 = 0.4096) of 1.453 ± 0.001. It also gave a refractive index (308.15 K, x1 = 0.5109) of 1.456 ± 0.001, a refractive index (308.15 K, x1 = 0.608) of 1.457 ± 0.001 and a refractive index (308.15 K, x1 = 0.7065) of 1.458 ± 0.001. It also gave a refractive index (308.15 K, x1 = 0.8069) of 1.459 ± 0.001, a refractive index (308.15 K, x1 = 0.8819) of 1.459 ± 0.001 and a refractive index (308.15 K, x1 = 1) of 1.459 ± 0.001. The refractive index (313.15 K, x1 = 0.0521) was 1.371 ± 0.001, the refractive index (313.15 K, x1 = 0.0725) was 1.384 ± 0.001 and the refractive index (313.15 K, x1 = 0.1039) was 1.401 ± 0.001. It also gave a refractive index (313.15 K, x1 = 0.2091) of 1.432 ± 0.001, a refractive index (313.15 K, x1 = 0.3101) of 1.445 ± 0.001 and a refractive index (313.15 K, x1 = 0.4096) of 1.451 ± 0.001. For the same compound, the refractive index (313.15 K, x1 = 0.5109) was 1.454 ± 0.001, the refractive index (313.15 K, x1 = 0.608) was 1.455 ± 0.001 and the refractive index (313.15 K, x1 = 0.7065) was 1.456 ± 0.001. The refractive index (313.15 K, x1 = 0.8069) was 1.456 ± 0.001, the refractive index (313.15 K, x1 = 0.8819) was 1.457 ± 0.001 and the refractive index (313.15 K, x1 = 1) was 1.457 ± 0.001. For the same compound, the refractive index (323.15 K, x1 = 0.0521) was 1.369 ± 0.001, the refractive index (323.15 K, x1 = 0.0725) was 1.382 ± 0.001 and the refractive index (323.15 K, x1 = 0.1039) was 1.397 ± 0.001. The refractive index (323.15 K, x1 = 0.2091) was 1.428 ± 0.001, the refractive index (323.15 K, x1 = 0.3101) was 1.441 ± 0.001 and the refractive index (323.15 K, x1 = 0.4096) was 1.446 ± 0.001. The refractive index (323.15 K, x1 = 0.5109) was 1.449 ± 0.001, the refractive index (323.15 K, x1 = 0.608) was 1.451 ± 0.001 and the refractive index (323.15 K, x1 = 0.7065) was 1.451 ± 0.001. For the same compound, the refractive index (323.15 K, x1 = 0.8069) was 1.452 ± 0.001, the refractive index (323.15 K, x1 = 0.8819) was 1.452 ± 0.001 and the refractive index (323.15 K, x1 = 1) was 1.452 ± 0.001. The refractive index (328.15 K, x1 = 0.0521) was 1.368 ± 0.001, the refractive index (328.15 K, x1 = 0.0725) was 1.381 ± 0.001 and the refractive index (328.15 K, x1 = 0.1039) was 1.396 ± 0.001. For the same compound, the refractive index (328.15 K, x1 = 0.2091) was 1.427 ± 0.001, the refractive index (328.15 K, x1 = 0.3101) was 1.439 ± 0.001 and the refractive index (328.15 K, x1 = 0.4096) was 1.444 ± 0.001. It also gave a refractive index (328.15 K, x1 = 0.5109) of 1.447 ± 0.001, a refractive index (328.15 K, x1 = 0.608) of 1.448 ± 0.001 and a refractive index (328.15 K, x1 = 0.7065) of 1.449 ± 0.001. The refractive index (328.15 K, x1 = 0.8069) was 1.449 ± 0.001, the refractive index (328.15 K, x1 = 0.8819) was 1.449 ± 0.001 and the refractive index (328.15 K, x1 = 1) was 1.449 ± 0.001. For the same compound, the refractive index (333.15 K, x1 = 0.0521) was 1.366 ± 0.001, the refractive index (333.15 K, x1 = 0.0725) was 1.379 ± 0.001 and the refractive index (333.15 K, x1 = 0.1039) was 1.396 ± 0.001. It also gave a refractive index (333.15 K, x1 = 0.2091) of 1.425 ± 0.001, a refractive index (333.15 K, x1 = 0.3101) of 1.437 ± 0.001 and a refractive index (333.15 K, x1 = 0.4096) of 1.442 ± 0.001. For the same compound, the refractive index (333.15 K, x1 = 0.5109) was 1.445 ± 0.001, the refractive index (333.15 K, x1 = 0.608) was 1.446 ± 0.001 and the refractive index (333.15 K, x1 = 0.7065) was 1.447 ± 0.001. For the same compound, the refractive index (333.15 K, x1 = 0.8069) was 1.447 ± 0.001, the refractive index (333.15 K, x1 = 0.8819) was 1.447 ± 0.001 and the refractive index (333.15 K, x1 = 1) was 1.447 ± 0.001.
